Measured values taken from publication PMC12040169 (PLOS Biology, 2025).

assay: in vitro; details: human, hela cells, % viability

SMILES | viability at 28.5 h, 10 µM
NC(=O)c1sc2nc(-c3cccnc3)ccc2c1N [CBK023645] | 66%
COC(=O)c1cn(C(=O)CCCN2C(=O)c3ccccc3C2=O)c2ccccc12 [CBK266799] | 91.7%
O=C(CSc1ccc2nnc(-c3ccc(F)cc3)n2n1)N1CCCCC1 [CBK287520] | 98.4%
CCC1(CC)CCN(C(=O)CCn2ccc3ccncc32)C1 [CBK285176] | 84.9%
COc1ccc(S(=O)(=O)Nc2ccc(C(=O)O)cc2)cc1[N+](=O)[O-] [CBK266130] | 103%
CN(C)Cc1cc(-c2ccccc2F)nn1CCNC(=O)C1CCC1 [CBK283471] | 93.1%
O=C(O)c1cccnc1SC1CC(=O)N(c2ccc([N+](=O)[O-])cc2)C1=O (stereo not shown) [CBK263079] | 100%
O=c1[nH]c(=O)c2c3c(sc2[nH]1)CCCC3 [CBK027724] | 67.6%
Cc1cc(-c2nccnc2N2CCN(CCN(C)C)CC2)cc(C)c1O [CBK037184] | 105%
COc1ccnc(N2CCN(C(=O)c3cncnc3C)CC2)n1 [CBK304894] | 104%
CCOC(=O)c1cccnc1-c1ccc(OC)c(OC)c1 [CBK149240] | 94.2%
Cc1c(C(=O)Nc2ccc(S(=O)(=O)NCC3CCCO3)cc2)cccc1[N+](=O)[O-] (stereo not shown) [CBK267533] | 94.5%
NCCNc1ccc(C(=O)Nc2cccc(Cl)c2)cc1[N+](=O)[O-] [CBK263953] | 85.3%
CC1CCCC(C)N1c1nn(C)c(=O)[nH]1 (stereo not shown) [CBK019114] | 100%
CN1CCC(N2CC[C@@H]3[C@H]2C(=O)NC[C@H](CCC(=O)NCc2ccccc2)N3C)CC1 [CBK289026] | 114%
COc1ccccc1N1C(=O)CC(N2CCC(C(N)=O)(N3CCCCC3)CC2)C1=O (stereo not shown) [CBK265533] | 84.3%
Cc1cc(C[C@@H]2CCC[C@H]2NCc2cccnc2)on1 [CBK284933] | 97.1%
CC(=O)c1nnn(-c2cc(Cl)ccc2Cl)c1C [CBK085973] | 104%
CC(C)c1ccc(CN2CCN(c3nccnc3NS(C)(=O)=O)CC2)cc1 [CBK084271] | 91%
CC(C)Cn1c(=O)[nH]c2ncc(-c3ccco3)nc21 [CBK064353] | 91.9%
COc1ccc(NC(=O)Cc2csc(NC(C)=O)n2)cc1 [CBK287650] | 93.3%
CN(CCc1cccnc1)CC(=O)Nc1cccc(Cl)c1 [CBK304108] | 93.1%
CC(C(=O)NC1(C#N)CCCCC1)N1CCOC(CN(C)C)C1 (stereo not shown) [CBK305155] | 88.6%

SMILES | viability at 28.5 h, 10 µM
Nc1nonc1C(=NCc1ccccc1)NO [CBK261109] | 105%
CC(C)C[C@@H]1N[C@H](C(=O)NCc2cccnc2)Cc2c[nH]c3cccc1c23 [CBK289418] | 90%
S=C(NCc1cccs1)NC1CC1 [CBK008520] | 86.4%
CCNC(=O)[C@H]1CN(Cc2ccccc2)C[C@@H]1C(=O)c1ccccc1 [CBK285265] | 88.1%
COC(=O)c1csc2c1N[C@H](C1CC3C=CC1C3)[C@@H]1CCO[C@H]21 (stereo partly shown) [CBK303251] | 94.9%
Fc1ccc(N2CCN(Cc3cccc(OCc4ccccc4)c3)CC2)cc1 [CBK261916] | 94.6%
N#Cc1ccc(COc2cccc(C(F)(F)F)c2)cc1 [CBK002811] | 103%
COc1ccc2c(C)c(C(=O)NC(C)Cc3ccccn3)oc2c1 (stereo not shown) [CBK281424] | 89.1%
CCC(C)(C)C1CCC(NC(=O)CSCCC(=O)O)CC1 (stereo not shown) [CBK296674] | 107%
Oc1cccc(/C=N/n2c(S)nnc2-c2ccncc2)c1 [CBK265300] | 109%
Cc1ccc(CCn2nc(C)cc2C)cn1 [CBK021375] | 104%
CCCSc1scc2c1-c1n[nH]cc1CC2 [CBK017006] | 99.3%
COCCn1c(SC(C)C(=O)N2CCNC2=O)nc2ccccc21 (stereo not shown) [CBK305832] | 85.7%
CC1CCC(C(N)=O)CN1C(=O)c1csc(Br)c1 (stereo not shown) [CBK305812] | 92.3%
O=C(NCc1nnc(-c2cccs2)o1)C1(c2ccc(F)cc2)CC1 [CBK284638] | 74.4%
Cc1cc(C2CCCCCN2Cc2c(C)nn(C)c2C)no1 (stereo not shown) [CBK284846] | 87.6%
COc1ccc2c(c1)CCN=C2C[C@H]1CN(C(=O)C(C)(C)C)CC[C@H]1CC(=O)O [CBK289155] | 92.5%
CCCNc1nc(-c2cc(OC)c(OC)c(OC)c2)cn2ccnc12 [CBK066363] | 99.2%
O=C(CCN1CCN(Cc2ccccc2)CC1)Nc1ccc(F)cc1 [CBK264261] | 77%
Cc1ccsc1CNC(=O)OCC1CCN(C)CC1 [CBK200149] | 96.9%
Cc1nn(-c2ccccc2)c(O)c1Cc1c(Cl)cccc1Cl [CBK067760] | 98.1%
Cc1cc(C(C)(C)C)cc(C)c1COC(=O)c1ccncc1 [CBK296995] | 112%
CCOC(=O)c1cnc(C(C)(C)C)nc1O [CBK018470] | 88.6%

SMILES | viability at 28.5 h, 10 µM
COc1cc(C)c(Nc2cc(-c3cccc(N(C)C)c3)ncn2)cc1OC [CBK090780] | 43.5%
Cc1cc(N2CCN(C(=O)c3ccsc3)CC2)nc(C(C)C)n1 [CBK304053] | 102%
O=C(c1cccnc1)N1CCN(C(=O)c2ccco2)CC1 [CBK072684] | 94.3%
CC(C)NC(=O)N[C@H]1CCN2C(=O)c3cc(-c4ccccc4)ccc3NC(=O)[C@H]12 [CBK289351] | 84.1%
Cc1nc(SCCN2C(=O)c3ccccc3S2(=O)=O)c2ccccc2n1 [CBK296958] | 90%
COC(=O)[C@@H]1CN(C(=O)Nc2ccccc2)CCN1S(C)(=O)=O [CBK289611] | 96.9%
O=C1CCC(=O)N1CCOc1nccnc1N1CCN(Cc2ccccc2F)CC1 [CBK084289] | 97.8%
COC(=O)CCc1ccc(S(=O)(=O)N2CCN(Cc3cccc4cccnc34)CC2)cc1 [CBK062969] | 87.8%
O=C(O)c1nn2c(C(F)(F)F)cc(-c3cccs3)nc2c1Cl [CBK262581] | 95.4%
O=C(CSC1c2ccccc2Oc2ccccc21)Nc1ccccc1C(=O)O [CBK266499] | 98.4%
CNC1(c2nnnn2CCOC(=O)Nc2ccc(Cl)cc2)CCCC1 [CBK266253] | 102%
Cc1ccc2nc(CN3CCC(CNc4ccccn4)C3)cc(=O)n2c1 (stereo not shown) [CBK306340] | 83.7%
Cc1c(Cc2c(Cl)cccc2Cl)c(=O)n(C)n1C [CBK113274] | 97.2%
Cc1nc(NS(=O)(=O)c2c(C)noc2C)sc1C(=O)Nc1ccc(F)cc1 [CBK050551] | 113%
CC1CCN(CC(C)(C)n2cncc2-c2cnn(C)c2)CC1 [CBK281738] | 107%
CCOc1ccc2c(c1)N1C(=O)NC(C(F)(F)F)(C(F)(F)F)N=C1S2 [CBK025440] | 85.4%
Nc1c(-c2ccsc2)cnc2cccnc12 [CBK081208] | 87.8%
COc1ccccc1CCC(=O)NCc1cnc(SC)n1C [CBK306926] | 85.9%
CN(C)CCNc1c2c(nc3ccccc13)CCC2 [CBK263732C] | 98.1%
CC(=O)Nc1ccc(S(=O)(=O)Nc2ccc(C(=O)N3CCN(C)CC3)cc2)cc1 [CBK050406] | 93.1%
O=C(NC[C@H]1O[C@@H](CC(=O)N2CCN(c3ccccc3)CC2)[C@H](O)[C@@H]1O)c1ccccc1 [CBK288920] | 108%
CCN1CCN(c2ccc(C(=O)OC)cc2NC(=O)c2ccc(C#N)cc2F)CC1 [CBK270171] | 101%
CCN(CC)C(=O)Cn1c(=O)n(Cc2ccco2)c2ncccc21 [CBK284016] | 109%

SMILES | viability at 28.5 h, 10 µM
CC(C)(CN)CN(Cc1ccccc1C(F)(F)F)C(=O)Nc1ccc(C(C)(C)C)cc1 [CBK026828C] | 92.4%
NNC(=O)Nc1ccc(Cc2ccc(NC(=O)NN)cc2)cc1 [CBK262017] | 88.5%
Cn1c(Cc2ccccc2)nnc1Sc1ccc(C(=O)O)cc1[N+](=O)[O-] [CBK265038] | 99.6%
Cc1ccc(NS(=O)(=O)c2c(Br)sc3ccnc(N4CCN(C)CC4)c23)cc1 [CBK034654C] | 103%
O=C(O)CNS(=O)(=O)c1ccc(-c2ccccc2)cc1 [CBK034457] | 98.9%
CN(Cc1nnc(-c2ccc(C(C)(C)C)cc2)o1)C(=O)C1CCCO1 (stereo not shown) [CBK307597] | 106%
Cn1cnc2cc(NCc3cc(-c4ccc(F)cc4)c[nH]c3=O)ccc21 [CBK284693] | 50.7%
CCOc1ccc(Cl)cc1CN(C)C(=O)NCC(C)CN(C)C (stereo not shown) [CBK307500] | 121%
O=C(NCCNC(=O)c1ccccc1I)c1ccccn1 [CBK269357] | 89.4%
CCn1c(SCC(=O)Nc2ccc(C#N)cc2)nnc1-c1ccncc1 [CBK270102] | 96.4%
COc1ccc(CCNC(=O)CN2CCCC2Cn2cccn2)cc1 (stereo not shown) [CBK306147] | 92.1%
Nc1nc(-c2ccccc2)nn1C(=O)CCc1ccccc1 [CBK074471] | 95.9%
CC(C)(CO)C(O)C(=O)NC1CCCC(C(=O)O)C1 (stereo not shown) [CBK286609] | 96%
COc1ccc(-c2nc(-c3ccoc3)cnc2N)cc1OC [CBK063964] | 105%
O=C(c1ccco1)N1CCN(C(=O)c2c(F)cccc2F)CC1 [CBK144479] | 86.3%
Cc1c(F)cccc1CNCCNC(=O)OC(C)(C)C [CBK056700] | 95.7%
CN(C)C(=O)n1cc(Cl)c(-c2ccccc2)n1 [CBK004985] | 97%
O=C(Nc1ccc(Sc2ccc([N+](=O)[O-])cc2)cc1)c1ccc2c(c1)C(=O)N(c1ccccc1-c1ccccc1)C2=O [CBK261340] | 77.1%
CCOC(=O)N1CCC(NC(=O)N(C)C2CCN(C)C2)CC1 (stereo not shown) [CBK156027] | 102%
Cc1cc(=O)c2ccccc2n1CC(=O)N1CCOC2(CCCC2)C1 [CBK306811] | 93.5%
O=C(Nc1ccccc1)O[C@@H]1CO[C@H]2[C@@H]1OC[C@@H]2NC(=O)C1CC1 [CBK289464] | 88%
Cc1ccc(Cn2ncc3c(C(=O)N4CCC(N(C)S(C)(=O)=O)CC4)cc(C)nc32)cc1 [CBK298280] | 102%
